# From US12091405B2, “Substituted pyrazole compounds as indoleamine 2,3-dioxygenase inhibitors” (Merck Sharp & Dohme LLC, priority 2018, dated 2024)
# pIC50: −log10 of the molar value.
# Molecular target: IDO1 (Homo sapiens, UniProt P14902)
# Test: IDO1 Cellular Assay in HeLa Cells Stimulated with IFNγ
# Assay type: cell-based
# Settings: IFNγ 100 ng/mL, 300 uM L-tryptophan, about 48 hours, fluorescence readout, read-out: IDO1 HELA Cell Assay, IC50
# Method: Biological Assays IDO1 Cellular Assay in HeLa Cells Stimulated with IFNγ
# HeLa cells were cultured in complete HeLa culture medium (90% EMEM, 10% heat-inactivated fetal bovine serum) and expanded to about 1×10^9 cells. The cells were then collected and frozen down at 1×10^7 cells/vial in 1 mL frozen medium (90% complete HeLa culture medium, 10% DMSO).
# Compounds to be tested were serially diluted in ten 3-fold steps in DMSO starting from 10 mM DMSO stocks in Echo low volume plate(s). Compound dilutions or DMSO alone were then dispensed from the dilution plate(s) into Greiner black 384-well assay plate(s) (catalog #781086, 50 nL/well) using an Echo 550 acoustic liquid handler (Labcyte).
# Frozen HeLa cells were thawed and transferred into HeLa assay medium (99% complete HeLa culture medium, 1% Pen/Strep) with 20 mL medium/vial of cells. The cells were spun down at 250 g in a table top centrifuge for 5 min and suspended in same volume of HeLa assay medium. The cells were then counted and adjusted to a density of 2×10^5 cells/mL in HeLa assay medium. Sterile L-tryptophan were added to the cells with final concentration of 300 uM L-tryptophan. A small aliquot (2 mL/plate) of HeLa cells were set aside and were not treated with IFNγ, to serve as the Max-E control.
# HeLa cells with and without IFNγ were dispensed to the respective wells of 384-well assay plates containing the compounds. The plates were incubated for about 48 hours at a 37° C., 5% CO2 incubator. Afterwards, 12 μL of 0.5 M methyl isonipecotate in dimethyl sulfoxide were added into each well and the plates were sealed and incubated at 37° C. without CO2 overnight. The plates were centrifuged for 1 min at 200×g. The resulting fluorescence was measured in a Spectramax plate reader (Molecular Devices) with a 400 nm excitation filter and a 510 nm emission filter.
# The fluorescence intensity of each well was corrected for the background observed in wells with non-IFNγ-treated cells and was expressed as a fraction of the intensity observed in wells of IFNγ-treated cells and DMSO only. Potencies were calculated by linear least squares fit to the four parameter logistic IC50 equation.
# Compounds disclosed herein generally have IC50 of about 0.1 nM to about 20,000 nM, or more specifically, about 1 nM to about 10,000 nM, or more specifically, about 5 nM to about 5,000 nM, or more specifically, about 10 nM to about 1,000 nM, or still more specifically, about 10 nM to about 500 nM.
# Sequence of IDO1 (P14902 whole entry): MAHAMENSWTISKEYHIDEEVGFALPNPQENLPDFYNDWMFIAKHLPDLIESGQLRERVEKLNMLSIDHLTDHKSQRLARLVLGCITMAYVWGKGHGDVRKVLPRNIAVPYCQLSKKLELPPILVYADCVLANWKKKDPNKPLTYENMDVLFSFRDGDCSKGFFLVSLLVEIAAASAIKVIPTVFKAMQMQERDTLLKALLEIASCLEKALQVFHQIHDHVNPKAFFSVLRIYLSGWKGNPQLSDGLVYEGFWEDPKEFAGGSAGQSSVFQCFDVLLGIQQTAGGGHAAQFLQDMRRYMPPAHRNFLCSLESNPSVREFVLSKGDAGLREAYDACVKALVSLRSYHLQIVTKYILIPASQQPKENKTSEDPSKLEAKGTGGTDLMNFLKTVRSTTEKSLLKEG
row,Structure (SMILES),pIC50
1,"COc1ccc(C2CCN(C(=O)Cn3nc(C(=O)N4C[C@@H](C)O[C@@H](C)C4)c4c3CCC4)CC2)c(C)c1C [Example 138, 2-{3-[(2R,6S)-2,6-dimethylmorpholine-4-carbonyl]-5,6-dihydrocyclopenta[c]pyrazol-1(4H)-yl}-1-[4-(4-methoxy-2,3-dimethylphenyl)piperidin-1-yl]ethan-1-one]",7.06
2,"C[C@@H]1CN(C(=O)c2nn(CC(=O)N3CCC(c4ccc(Cl)cc4)CC3)c3c2CCC3)C[C@H](C)O1 [Example 114, 1-[4-(4-chlorophenyl)piperidin-1-yl]-2-{3-[(2R,6S)-2,6-dimethylmorpholine-4-carbonyl]-5,6-dihydrocyclopenta[c]pyrazol-1(4H)-yl}ethan-1-one]",7.34
3,"C[C@@H]1CN(C(=O)c2nn(CC(=O)N3CCC(c4ccc(F)c(C(F)F)c4)CC3)c3c2CCC3)C[C@H](C)O1 [Example 133, 1-{4-[3-(difluoromethyl)-4-fluorophenyl]piperidin-1-yl}-2-{3-[(2R,6S)-2,6-dimethylmorpholine-4-carbonyl]-5,6-dihydrocyclopenta[c]pyrazol-1(4H)-yl}ethan-1-one]",7.09
4,"C[C@@H]1CN(C(=O)c2nn(CC(=O)N3CCC(c4cc(Cl)cc(Cl)c4)CC3)c3c2CCC3)C[C@H](C)O1 [Example 167, 1-[4-(3,5-dichlorophenyl)piperidin-1-yl]-2-{3-[(2R,6S)-2,6-dimethylmorpholine-4-carbonyl]-5,6-dihydrocyclopenta[c]pyrazol-1(4H)-yl}ethan-1-one]",6.56
5,"C[C@@H]1CN(C(=O)c2nn(CC(=O)N3CCC(C4CCCCC4)CC3)c3c2CCC3)C[C@H](C)O1 [Example 30, 1-(4-cyclohexylpiperidin-1-yl)-2-{3-[(2R,6S)-2,6-dimethylmorpholine-4-carbonyl]-5,6-dihydrocyclopenta[c]pyrazol-1(4H)-yl}ethan-1-one]",6.52
6,"Cc1cccc(C2(F)CCN(C(=O)Cn3nc(C(=O)N4CCC(N)CC4)c4c3C[C@H]3C[C@@H]43)CC2)c1C [Example 13, 2-((3bR,4aR)-3-(4-aminopiperidine-1-carbonyl)-3b,4,4a,5-tetrahydro-1H-cyclopropa[3,4]cyclopenta[1,2-c]pyrazol-1-yl)-1-(4-(2,3-dimethylphenyl)-4-fluoropiperidin-1-yl)ethanone]",7.04
7,"C[C@@H]1CN(C(=O)c2nn(CC(=O)N3CCC(c4ccccc4C(F)(F)F)CC3)c3c2CCC3)C[C@H](C)O1 [Example 71, 2-{3-[(2R,6S)-2,6-dimethylmorpholine-4-carbonyl]-5,6-dihydrocyclopenta[c]pyrazol-1(4H)-yl}-1-{4-[2-(trifluoromethyl)phenyl]piperidin-1-yl}ethan-1-one]",6.97
8,"C[C@@H]1CN(C(=O)c2nn(CC(=O)N3CCC(c4ccc(C(F)(F)F)c(F)c4)CC3)c3c2CCC3)C[C@H](C)O1 [Example 161, 2-{3-[(2R,6S)-2,6-dimethylmorpholine-4-carbonyl]-5,6-dihydrocyclopenta[c]pyrazol-1(4H)-yl}-1-{4-[3-fluoro-4-(trifluoromethyl)phenyl]piperidin-1-yl}ethan-1-one]",6.78
9,"C[C@@H]1CN(C(=O)c2nn(CC(=O)N3CCC(c4ccc(F)cc4)CC3)c3c2CCC3)C[C@H](C)O1 [Example 68, 2-{3-[(2R,6S)-2,6-dimethylmorpholine-4-carbonyl]-5,6-dihydrocyclopenta[c]pyrazol-1(4H)-yl}-1-[4-(4-fluorophenyl)piperidin-1-yl]ethan-1-one]",7.15
10,"Cc1cccc(C2CCN(C(=O)Cn3nc(C(=O)N4CC(C)(O)C4)c4c3CCC4)CC2)c1C [Example 50, 1-(4-(2,3-dimethylphenyl)piperidin-1-yl)-2-(3-(3-hydroxy-3-methylazetidine-1-carbonyl)-5,6-dihydrocyclopenta[c]pyrazol-1(4H)-yl)ethan-1-one]",7.40
11,"C[C@@H]1CN(C(=O)c2nn(CC(=O)N3CCC(c4cccc(C5(C)CC5)c4)CC3)c3c2CCC3)C[C@H](C)O1 [Example 125, 2-{3-[(2R,6S)-2,6-dimethylmorpholine-4-carbonyl]-5,6-dihydrocyclopenta[c]pyrazol-1(4H)-yl}-1-{4-[3-(1-methylcyclopropyl)phenyl]piperidin-1-yl}ethan-1-one]",7.24

# These reach a higher pIC50. Values come first.
row,pIC50,Structure (SMILES)
1,7.52,"Cc1cc(Cl)ccc1C1CCN(C(=O)Cn2nc(C(=O)N3C[C@@H](C)O[C@@H](C)C3)c3c2CCC3)CC1 [Example 106, 1-[4-(4-chloro-2-methylphenyl)piperidin-1-yl]-2-{3-[(2R,6S)-2,6-dimethylmorpholine-4-carbonyl]-5,6-dihydrocyclopenta[c]pyrazol-1(4H)-yl}ethan-1-one]"
2,7.57,"Cc1cccc(C2CCN(C(=O)Cn3nc(C(=O)N4CC[C@H](O)C4)c4c3CCC4)CC2)c1C [Example 48, (S)-1-(4-(2,3-dimethylphenyl)piperidin-1-yl)-2-(3-(3-hydroxypyrrolidine-1-carbonyl)-5,6-dihydrocyclopenta[c]pyrazol-1(4H)-yl)ethan-1-one]"
3,8.89,"Cc1c(C2CCN(C(=O)Cn3nc(C(=O)N4CCN(C(=O)CO)CC4)c4c3C[C@H]3C[C@@H]43)CC2)cccc1C(F)(F)F [Example 3, 2-hydroxy-1-(4-((3bR,4aR)-1-(2-(4-(2-methyl-3-(trifluoromethyl)phenyl)piperidin-1-yl)-2-oxoethyl)-3b,4,4a,5-tetrahydro-1H-cyclopropa[3,4]cyclopenta[1,2-c]pyrazole-3-carbonyl)piperazin-1-yl)ethanone]"
4,7.57,"Cc1ccc(F)cc1C1CCN(C(=O)Cn2nc(C(=O)N3C[C@@H](C)O[C@@H](C)C3)c3c2CCC3)CC1 [Example 98, 2-{3-[(2R,6S)-2,6-dimethylmorpholine-4-carbonyl]-5,6-dihydrocyclopenta[c]pyrazol-1(4H)-yl}-1-[4-(5-fluoro-2-methylphenyl)piperidin-1-yl]ethan-1-one]"
5,8.77,"Cc1c(C2CCN(C(=O)Cn3nc(C(=O)N4CCO[C@@H](CO)C4)c4c3C[C@H]3C[C@@H]43)CC2)cccc1C(F)(F)F [Example 5, 2-((3bR,4aR)-3-((R)-2-(hydroxymethyl)morpholine-4-carbonyl)-3b,4,4a,5-tetrahydro-1H-cyclopropa[3,4]cyclopenta[1,2-c]pyrazol-1-yl)-1-(4-(2-methyl-3-(trifluoromethyl)phenyl)piperidin-1-yl)ethanone]"
6,8.08,"C[C@@H]1CN(C(=O)c2nn(CC(=O)N3CCC(c4cccc5sccc45)CC3)c3c2CCC3)C[C@H](C)O1 [Example 88, 1-[4-(1-benzothiophen-4-yl)piperidin-1-yl]-2-{3-[(2R,6S)-2,6-dimethylmorpholine-4-carbonyl]-5,6-dihydrocyclopenta[c]pyrazol-1(4H)-yl}ethan-1-one]"
7,7.53,"Cc1cccc(C2CCN(C(=O)Cn3nc(C(=O)N4CC[C@](C)(O)C4)c4c3CCC4)CC2)c1C [Example 49, (S)-1-(4-(2,3-dimethylphenyl)piperidin-1-yl)-2-(3-(3-hydroxy-3-methylpyrrolidine-1-carbonyl)-5,6-dihydrocyclopenta[c]pyrazol-1(4H)-yl)ethan-1-one]"
8,8.74,"Cc1cccc(C2CCN(C(=O)Cn3nc(C(=O)N4CC[C@H](O)[C@H](F)C4)c4c3CCC4)CC2)c1C [Example 59, 1-(4-(2,3-dimethylphenyl)piperidin-1-yl)-2-(3-((3R,4S)-3-fluoro-4-hydroxypiperidine-1-carbonyl)-5,6-dihydrocyclopenta[c]pyrazol-1(4H)-yl)ethanone]"
